Reference: US20100210562A1, “USE OF IL-1 RECEPTOR PEPTIDE, ALONE OR IN COMBINATION WITH D-ALA-GLN-OCTADECYL ESTER, AS A THERAPEUTIC AGENT” (priority 2007, published 2010)
Where no end group is shown, it is not given here.

Test system: drug-resistant Mycobacterium tuberculosis
Format: cell-based
Conditions: 10 micrograms per ml; seven days at 37° C.; strain resistant to PAS, streptomycin and isoniazid

Substance	inhibition of the growth of Mycobacterium tuberculosis [%]
D-Ala-Gln-octadecyl ester [Peptide 2]	100
Lys-Ile-Cys-Ile-Arg-Ile-Gln-Ile-Ser-OH (KICIRIQIS-OH) [Peptide 1]	100
